Tested on: P12-Ichikawa
Test: cell viability relative to DMSO control; higher = less cytotoxic
Conditions: 48 h
How it was run: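 Before seeding, each leukemia line was adapted for at least four passages in each medium. NOMO1 or SEM cells (500 cells/well) and P12-Ichikawa cells (1000 cells/well) went into 1536-well plates at 5 μl, then received library compounds in DMSO by pin dosing across 11 threefold concentrations, 47 μM to 0.79 nM. Readout was CellTiter-Glo One luminescence after 48 h at 37°C, and viability is given as a per-plate percentage of DMSO wells, with cell-free wells as background.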

[1] = HPLM + 10% dialyzed FBS, 0.000781 µM
[2] = HPLM + 10% dialyzed FBS, 0.00234 µM
[3] = HPLM + 10% dialyzed FBS, 0.00702 µM
[4] = HPLM + 10% dialyzed FBS, 0.0211 µM
[5] = HPLM + 10% dialyzed FBS, 0.0632 µM
[6] = HPLM + 10% dialyzed FBS, 0.19 µM
[7] = HPLM + 10% dialyzed FBS, 0.569 µM
[8] = HPLM + 10% dialyzed FBS, 1.71 µM
[9] = HPLM + 10% dialyzed FBS, 5.12 µM
[10] = HPLM + 10% dialyzed FBS, 15.4 µM
[11] = HPLM + 10% dialyzed FBS, 46.1 µM
[12] = RPMI 5 mM glucose + 10% FBS, 0.000781 µM
[13] = RPMI 5 mM glucose + 10% FBS, 0.00234 µM
[14] = RPMI 5 mM glucose + 10% FBS, 0.00702 µM
[15] = RPMI 5 mM glucose + 10% FBS, 0.0211 µM
[16] = RPMI 5 mM glucose + 10% FBS, 0.0632 µM
[17] = RPMI 5 mM glucose + 10% FBS, 0.19 µM
[18] = RPMI 5 mM glucose + 10% FBS, 0.569 µM
[19] = RPMI 5 mM glucose + 10% FBS, 1.71 µM
[20] = RPMI 5 mM glucose + 10% FBS, 5.12 µM
[21] = RPMI 5 mM glucose + 10% FBS, 15.4 µM
[22] = RPMI 5 mM glucose + 10% FBS, 46.1 µM
[23] = RPMI 5 mM glucose + 10% dialyzed FBS, 0.000781 µM
[24] = RPMI 5 mM glucose + 10% dialyzed FBS, 0.00234 µM
[25] = RPMI 5 mM glucose + 10% dialyzed FBS, 0.00702 µM
[26] = RPMI 5 mM glucose + 10% dialyzed FBS, 0.0211 µM
[27] = RPMI 5 mM glucose + 10% dialyzed FBS, 0.0632 µM
[28] = RPMI 5 mM glucose + 10% dialyzed FBS, 0.19 µM
[29] = RPMI 5 mM glucose + 10% dialyzed FBS, 0.569 µM
[30] = RPMI 5 mM glucose + 10% dialyzed FBS, 1.71 µM
[31] = RPMI 5 mM glucose + 10% dialyzed FBS, 5.12 µM
[32] = RPMI 5 mM glucose + 10% dialyzed FBS, 15.4 µM
[33] = RPMI 5 mM glucose + 10% dialyzed FBS, 46.1 µM

Compound	cell viability [1]	cell viability [2]	cell viability [3]	cell viability [4]	cell viability [5]	cell viability [6]	cell viability [7]	cell viability [8]	cell viability [9]	cell viability [10]	cell viability [11]	cell viability [12]	cell viability [13]	cell viability [14]	cell viability [15]	cell viability [16]	cell viability [17]	cell viability [18]	cell viability [19]	cell viability [20]	cell viability [21]	cell viability [22]	cell viability [23]	cell viability [24]	cell viability [25]	cell viability [26]	cell viability [27]	cell viability [28]	cell viability [29]	cell viability [30]	cell viability [31]	cell viability [32]	cell viability [33]
CC(C)[C@H](C(=O)Nc1ccc(C(=O)NO)cc1)c1ccccc1	117%	120%	121%	129%	125%	125%	118%	87.9%	7.68%	5.55%	6.05%	–	–	–	–	–	–	–	–	–	–	–	–	–	–	–	–	–	–	–	–	–	–
CCOc1ccccc1N/N=C1/C(=O)N(c2nc(-c3ccccc3)cs2)N=C1C	111%	114%	114%	115%	114%	108%	104%	101%	103%	86.4%	67%	115%	108%	108%	121%	116%	120%	112%	106%	114%	98.9%	97%	113%	118%	110%	116%	113%	108%	109%	105%	106%	94.6%	94.6%
c1coc(CNc2ncnc3nc[nH]c23)c1	–	–	–	–	–	–	–	–	–	–	–	–	–	–	–	–	–	–	–	–	–	–	123%	132%	116%	122%	131%	131%	130%	127%	122%	115%	105%
C/C1=C/C(=C(/CNC(=O)C2=CC(=CC3=C2C=N[N]3C4CCCC4)C5=CC=C(CN6CCOCC6)C=C5)C(=O)N1)C	113%	118%	118%	117%	124%	120%	114%	112%	114%	106%	38.6%	128%	124%	120%	117%	126%	123%	126%	123%	115%	122%	45.8%	–	–	–	–	–	–	–	–	–	–	–
CCOc1cc(C(=O)Nc2ccc(Cl)c(-c3nc4ccccc4[nH]3)c2)cc(OCC)c1OCC	74.3%	82.5%	89%	91%	91.9%	92.9%	98.9%	96.1%	92%	94.1%	84.6%	81.6%	89.8%	86.7%	88.4%	95.8%	92.9%	86.7%	86.5%	86.6%	95.4%	60.8%	78.9%	76.7%	84%	86.5%	85.8%	81.2%	88.3%	82.8%	79.8%	81.1%	53.6%
CCCCCN(C)CCC(O)(P(=O)([O-])O)P(=O)(O)O	88%	88.1%	87.1%	96%	95%	97.6%	99.5%	92.9%	93.4%	99.2%	92.4%	81.4%	86.5%	91.3%	95.6%	85.8%	86.6%	94%	89.7%	91.3%	92.6%	83.4%	79%	85.2%	81.1%	95.3%	88.9%	84.5%	88.9%	79.4%	86.1%	87.8%	86.9%
OC[C@H]1OC(O)C[C@@H](O)[C@@H]1O (stereo partly drawn)	122%	124%	114%	118%	121%	120%	115%	119%	121%	118%	107%	119%	122%	124%	115%	134%	119%	131%	131%	120%	116%	112%	107%	125%	119%	117%	116%	116%	119%	123%	124%	122%	110%
CC(C)[C@]12O[C@H]1[C@@H]3O[C@@]34[C@@]5(C)CC\C6=C(COC6=O)/[C@@H]5C[C@@H]7O[C@]47[C@@H]2O	97.5%	9.15%	6.65%	7.98%	9.04%	8.65%	9.22%	8.95%	8.4%	6.67%	4.18%	102%	16.6%	8.24%	5.66%	7.99%	8.04%	7%	6.95%	5.74%	4.33%	2.61%	101%	10.6%	8.79%	7.77%	9.01%	8.98%	9.99%	9.74%	9.21%	6.99%	5.18%
c1cc2c(cc1[C@H]1OC[C@H]3[C@@H]1CO[C@@H]3c1ccc3c(c1)OCO3)OCO2	122%	120%	118%	124%	122%	129%	133%	122%	119%	128%	122%	–	–	–	–	–	–	–	–	–	–	–	–	–	–	–	–	–	–	–	–	–	–
Cc1cccc(-c2[nH]c(C(C)(C)C)nc2-c2ccc3nccnc3c2)n1	120%	124%	124%	126%	125%	120%	118%	110%	112%	112%	48%	122%	122%	115%	116%	124%	121%	108%	119%	106%	106%	81.4%	–	–	–	–	–	–	–	–	–	–	–
Cc1cc(/C=c2/sc3nc4ccccc4n3c2=O)c(C)n1-c1ccccc1	121%	127%	123%	119%	123%	119%	128%	125%	122%	113%	112%	–	–	–	–	–	–	–	–	–	–	–	110%	126%	116%	132%	126%	121%	124%	124%	105%	112%	120%
CN(CC(=O)N(Cc1ccc(C2CCCCC2)cc1)c1ccc(C(=O)O)c(O)c1)[S+](=O)([O-])c1c(F)c(F)c(F)c(F)c1F	93%	100%	94.2%	102%	106%	107%	107%	101%	91.7%	75.3%	5.29%	93%	100%	99.5%	101%	99.7%	103%	100%	105%	101%	92.5%	51.3%	87.8%	90.1%	91.4%	93.9%	96.6%	87.1%	94.3%	96%	97.9%	79.6%	29.6%
Cn1cnc(N)c2ncnc1-2	110%	116%	125%	127%	115%	116%	124%	110%	88.5%	5.12%	4.04%	97.1%	119%	114%	117%	121%	114%	126%	113%	83.6%	6.1%	3.21%	97.9%	109%	117%	128%	123%	130%	124%	113%	91.9%	7.88%	3.87%
C#CCC(Cc1cnc2nc(N)nc(N)c2n1)c1ccc(C(=O)N[C@@H](CCC(=O)O)C(=O)O)cc1 (stereo partly drawn)	–	–	–	–	–	–	–	–	–	–	–	125%	119%	128%	128%	44.8%	47.4%	29.9%	27.4%	23.9%	29%	30.8%	120%	110%	115%	125%	37.1%	25.6%	20.2%	19.9%	17.2%	20.3%	19%
CC(C)C[C@H](CC(=O)O)C(=O)N[C@@H](Cc1c[nH]c2ccccc12)C(=O)N[C@@H](C)c1ccccc1	95.1%	102%	108%	108%	112%	111%	83.6%	107%	73.4%	42.1%	22.4%	89%	96%	111%	101%	94.2%	106%	83.7%	106%	72.6%	53.4%	32.9%	103%	111%	101%	119%	107%	108%	103%	107%	74.8%	67.8%	28.2%
CC(C)[C@H]1C(=O)N[C@H](CO)Cc2c[nH]c3cccc(c23)N1C	87.3%	96%	98.3%	108%	110%	99.2%	92.2%	88.1%	74.2%	83.9%	88.8%	91.5%	98.8%	104%	105%	110%	98.9%	76.9%	75.4%	63.7%	65.4%	74.5%	87%	99.7%	97.9%	101%	107%	90.3%	79.1%	70.6%	58%	64.5%	65.3%
C[C@]12CC[C@H]3[C@@H](CC[C@@]45O[C@@H]4C(O)=C(C#N)C[C@]35C)[C@@H]1CC[C@@H]2O	108%	116%	113%	116%	125%	116%	111%	115%	113%	107%	20.9%	101%	103%	108%	120%	108%	114%	121%	122%	116%	108%	12.3%	101%	103%	113%	116%	114%	114%	111%	115%	109%	105%	16.7%
CC1=CC/2=C(C=C1C)N(C[C@@H](O)[C@@H](O)[C@@H](O)CO)C/3=N/C(=O)NC(=O)C3=N2	118%	123%	117%	116%	120%	129%	113%	109%	115%	103%	107%	–	–	–	–	–	–	–	–	–	–	–	122%	122%	121%	132%	123%	121%	118%	113%	108%	105%	102%
